Test system: AMPK
Assay: AMPK activating activity in HK-2 cells treated with tunicamycin, Western blot
Type: cell-based, human
Details: tunicamycin 5 μg/ml with or without sephin1 1 μM, 24 hours, compared to untreated cells
Experimental: The HK-2 cell line is a proximal tubular cell line derived from normal kidney immortalized by transduction with human papilloma virus 16 (HPV-16) E6/E7 genes.
HK-2 cells were seeded in a six well plate at a cell density of 7×10^4 cells per well 24 hours prior to the start of the study (T−24). […] 24 hours later (at T24) cells were recovered and protein was analyzed by Western blot analysis.

tunicamycin
AMPK levels (AMPK/GAPDH): reduced

From patent US20260240795A1 (KYOTO P[…] UNIVERSITY CORPORATION, priority 2023, published 2026)
